Here are results for five compounds from US12281149B2, “Modulators of G-protein coupled receptors” (priority 2021, dated 2025).

The EC50 is the concentration giving half of the maximal effect. One may read the Emax as the maximal effect, on the per cent scale that the assay sets.

Common to all, as to assay type: cell-based
Assay [1] concerns the target T1, GLP-1 receptor (Homo sapiens, UniProt P43220). Put plainly: HitHunter cAMP assay, GLP-1 receptor. The settings on record: for Emax: read-out: Emax GLP-1R.
Assay [2] has as its target T1, GLP-1 receptor. Put plainly: PathHunter β-arrestin assay, GLP-1 receptor. Set-up: host or cells: PathHunter CHO-K1 GLP1R β-Arrestin Cell Line.
The target of assay [3] is T2, GIP receptor (Homo sapiens, UniProt P48546).
T2 sequence (P48546 22-466): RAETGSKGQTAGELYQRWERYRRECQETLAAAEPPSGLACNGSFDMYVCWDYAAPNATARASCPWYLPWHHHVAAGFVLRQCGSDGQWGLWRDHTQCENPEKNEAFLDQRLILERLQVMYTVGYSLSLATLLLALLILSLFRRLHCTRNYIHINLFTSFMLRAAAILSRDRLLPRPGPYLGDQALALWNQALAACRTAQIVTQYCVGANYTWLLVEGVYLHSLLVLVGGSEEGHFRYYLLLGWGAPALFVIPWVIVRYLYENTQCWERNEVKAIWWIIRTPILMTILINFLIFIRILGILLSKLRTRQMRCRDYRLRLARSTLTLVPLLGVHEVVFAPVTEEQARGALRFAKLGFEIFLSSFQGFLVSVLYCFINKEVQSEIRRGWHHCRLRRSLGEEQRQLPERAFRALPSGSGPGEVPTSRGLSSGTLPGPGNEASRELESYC
In words: HitHunter cAMP assay, GIP receptor. The following applies: for Emax: read-out: Emax GIP-1R. Background: Changes in cAMP serve as a functional read-out for many G protein-coupled receptors.

In assay [4] the target is T2, GIP receptor. Put plainly: PathHunter β-arrestin assay, GIP receptor. Set-up: host or cells: PathHunter CHO-K1 GIPR β-Arrestin Cell Line.
Where [5] appears, read: CHO cells stably expressing human GLP-1 receptor, cAMP accumulation, 30 min, read-out: EC50 GLP-1R.
Where [6] appears, read: CHO cells, cAMP, normalized to maximum signal from GLP-1 (high) and DMSO (low).
Where [7] appears, read: β-arrestin-2 recruitment, PathHunter CHO-K1 GLP1R β-Arrestin Cell Line, 90 min at 37° C., normalized to GLP-1, read-out: GLP-1R β Arrestin EC50.
The mark [8] stands for this setting: CHO cells stably expressing GIP receptor, cAMP accumulation, 30 min, read-out: EC50 GIP-1R.
The mark [9] stands for this setting: CHO cells, cAMP, normalized to maximum signal from GIP (high) and DMSO (low).
[10] abbreviates: β-arrestin-2 recruitment, PathHunter CHO-K1 GIPR β-Arrestin Cell Line, 90 min at 37° C., normalized to GIP, read-out: GIPR β Arrestin EC50.

Structures are written as SMILES. Like-named read-outs stand apart in the source and are kept apart here. *1 amine or outer side, *2 acyl side, *3 side chain or, on linkers, in order; H or OH if unused. Where a SMILES comes first, the peptide text is derived from it. Side-chain parts run from the residue outwards. [ ]: non-standard residue; d: D form. The star is where a group is joined. Isobutyryl(2-(3-CN-5-F-Ph)) = CC(C)(C(=O)*)c1cc(F)cc(C#N)c1; C20 diacid = O=C(O)CCCCCCCCCCCCCCCCCCC(=O)*; Phenylacetyl(3-Cl) = O=C(Cc1cccc(Cl)c1)*; γGlu = O=C(O)[C@H](CCC(=O)[*:2])N[*:1]; Trx = NC[C@H]1CC[C@H](C(=O)O)CC1; X44 = COc1ccc(C(C)(C)C(=O)*)cc1; X3 = CC(C)(C(=O)*)c1ccc(Cl)cc1; AEEA = NCCOCCOCC(=O)O; Aib = CC(C)(N)C(=O)O; GABA = NCCCC(=O)O; βAla = NCCC(=O)O Some results are limits rather than exact numbers.

T1 sequence (P43220 24-463): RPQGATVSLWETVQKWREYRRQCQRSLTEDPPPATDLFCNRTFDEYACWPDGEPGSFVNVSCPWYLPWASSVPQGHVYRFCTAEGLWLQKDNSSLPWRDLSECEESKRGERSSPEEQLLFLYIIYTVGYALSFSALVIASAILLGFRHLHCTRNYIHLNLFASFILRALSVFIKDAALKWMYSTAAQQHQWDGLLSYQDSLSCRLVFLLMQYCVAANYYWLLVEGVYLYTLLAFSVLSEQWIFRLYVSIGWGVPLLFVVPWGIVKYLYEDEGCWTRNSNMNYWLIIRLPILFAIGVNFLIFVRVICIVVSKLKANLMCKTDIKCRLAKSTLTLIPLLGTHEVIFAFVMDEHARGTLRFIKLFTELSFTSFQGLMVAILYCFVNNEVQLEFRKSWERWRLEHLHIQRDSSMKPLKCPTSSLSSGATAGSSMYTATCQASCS

Turning to `CC[C@H](C)[C@H](NC(=O)[C@H](CC(C)C)NC(=O)[C@H](Cc1c[nH]c2ccccc12)NC(=O)[C@H](CCC(N)=O)NC(=O)[C@@H](NC(=O)[C@H](Cc1ccccc1)NC(=O)[C@H](C)NC(=O)[C@H](CCCCNC(=O)COCCOCCNC(=O)COCCOCCNC(=O)CC[C@H](NC(=O)CCCCCCCCCCCCCCCCCCC(=O)O)C(=O)O)NC(=O)[C@H](CCC(N)=O)NC(=O)[C@H](C)NC(=O)[C@@H](NC(=O)[C@H](CCCCN)NC(=O)[C@H](CC(=O)O)NC(=O)[C@H](CC(C)C)NC(=O)C(C)(C)NC(=O)[C@@H](NC(=O)[C@H](CO)NC(=O)[C@H](Cc1ccc(O)cc1)NC(=O)[C@H](CC(=O)O)NC(=O)[C@H](CO)NC(=O)[C@@H](NC(=O)[C@H](Cc1ccccc1)NC(=O)[C@@H](NC(=O)CNC(=O)[C@H](CCC(=O)O)NC(=O)CCNC(=O)C(C)(C)c1ccc(OC)cc1)[C@@H](C)O)[C@@H](C)O)[C@@H](C)CC)[C@@H](C)CC)C(C)C)C(=O)N[C@@H](C)C(=O)NCC(=O)NCC(=O)N1CCC[C@H]1C(=O)N[C@@H](CO)C(=O)N[C@@H](CO)C(=O)NCC(=O)N[C@@H](C)C(=O)N1CCC[C@H]1C(=O)N1CCC[C@H]1C(=O)N1CCC[C@H]1C(=O)N[C@@H](CO)C(N)=O` [Compound 203] ({X44-βAla}-EGTFTSDYSI[Aib]LDKIAQK([AEEA-AEEA-γGlu-C20 diacid])AFVQWLIAGGPSSGAPPPS-NH2), the EC50 on GLP-1 receptor [1] (setting [5]) was 0.1 to 1 nM; at GLP-1 receptor [2] (setting [7]), > 1000 nM; at GIP receptor [3] (setting [8]), 1 to 10 nM; on GIP receptor [4] (setting [10]) it was < 1000 nM. Besides, the maximum response (Emax) at GLP-1 receptor [1] (setting [6]) and on GIP receptor [3] (setting [9]) was 103% each time.

Turning to `CC[C@H](C)[C@H](NC(=O)[C@H](CC(C)C)NC(=O)[C@H](Cc1c[nH]c2ccccc12)NC(=O)[C@H](CCC(N)=O)NC(=O)[C@@H](NC(=O)[C@H](Cc1ccccc1)NC(=O)[C@H](C)NC(=O)[C@H](CCCCNC(=O)COCCOCCNC(=O)COCCOCCNC(=O)CC[C@H](NC(=O)CCCCCCCCCCCCCCCCCCC(=O)O)C(=O)O)NC(=O)[C@H](CCC(N)=O)NC(=O)[C@H](C)NC(=O)[C@@H](NC(=O)[C@H](CCCCN)NC(=O)[C@H](CC(=O)O)NC(=O)[C@H](CC(C)C)NC(=O)C(C)(C)NC(=O)[C@@H](NC(=O)[C@H](CO)NC(=O)[C@H](Cc1ccc(O)cc1)NC(=O)[C@H](CC(=O)O)NC(=O)[C@H](CO)NC(=O)[C@@H](NC(=O)[C@H](Cc1ccccc1)NC(=O)[C@@H](NC(=O)CNC(=O)[C@H](CCC(=O)O)NC(=O)CCNC(=O)C(C)(C)c1ccc(Cl)cc1)[C@@H](C)O)[C@@H](C)O)[C@@H](C)CC)[C@@H](C)CC)C(C)C)C(=O)N[C@@H](C)C(=O)NCC(=O)NCC(=O)N1CCC[C@H]1C(=O)N[C@@H](CO)C(=O)N[C@@H](CO)C(=O)NCC(=O)N[C@@H](C)C(=O)N1CCC[C@H]1C(=O)N1CCC[C@H]1C(=O)N1CCC[C@H]1C(=O)N[C@@H](CO)C(N)=O` [Compound 185] ({X3-βAla}-EGTFTSDYSI[Aib]LDKIAQK([AEEA-AEEA-γGlu-C20 diacid])AFVQWLIAGGPSSGAPPPS-NH2), the EC50 at GLP-1 receptor [1] (setting [5]) was 0.1 to 1 nM; at GLP-1 receptor [2] (setting [7]), < 1000 nM; on GIP receptor [3] (setting [8]), 10 to 100 nM; on GIP receptor [4] (setting [10]), > 1000 nM. The Emax on GLP-1 receptor [1] (setting [6]) was 101%; on GIP receptor [3] (setting [9]), 95%.

For the compound `CC[C@H](C)[C@H](NC(=O)[C@H](CC(C)C)NC(=O)[C@H](Cc1c[nH]c2ccccc12)NC(=O)[C@H](CCC(N)=O)NC(=O)[C@@H](NC(=O)[C@H](Cc1ccccc1)NC(=O)[C@H](C)NC(=O)[C@H](CCCCNC(=O)CC[C@H](NC(=O)CC[C@H](NC(=O)CC[C@H](NC(=O)[C@H]1CC[C@H](CNC(=O)CCCCCCCCCCCCCCCCCCC(=O)O)CC1)C(=O)O)C(=O)O)C(=O)O)NC(=O)[C@H](CCC(N)=O)NC(=O)[C@H](C)NC(=O)[C@@H](NC(=O)[C@H](CCCCN)NC(=O)[C@H](CC(=O)O)NC(=O)[C@H](CC(C)C)NC(=O)C(C)(C)NC(=O)[C@@H](NC(=O)[C@H](CO)NC(=O)[C@H](Cc1ccc(O)cc1)NC(=O)[C@H](CC(=O)O)NC(=O)[C@H](CO)NC(=O)[C@@H](NC(=O)[C@H](Cc1ccccc1)NC(=O)[C@@H](NC(=O)CNC(=O)[C@H](CCC(=O)O)NC(=O)CCNC(=O)C(C)(C)c1cc(F)cc(C#N)c1)[C@@H](C)O)[C@@H](C)O)[C@@H](C)CC)[C@@H](C)CC)C(C)C)C(=O)N[C@@H](C)C(=O)NCC(=O)NCC(=O)N1CCC[C@H]1C(=O)N[C@@H](CO)C(=O)N[C@@H](CO)C(=O)NCC(=O)N[C@@H](C)C(=O)N1CCC[C@H]1C(=O)N1CCC[C@H]1C(=O)N1CCC[C@H]1C(=O)N[C@@H](CO)C(N)=O` [Compound 107] ({Isobutyryl(2-(3-CN-5-F-Ph))-βAla}-EGTFTSDYSI[Aib]LDKIAQK([γGlu-γGlu-γGlu-Trx-C20 diacid])AFVQWLIAGGPSSGAPPPS-NH2), the EC50 on GLP-1 receptor [1] (setting [5]) is 0.1 to 1 nM; at GLP-1 receptor [2] (setting [7]), > 1000 nM; on GIP receptor [3] (setting [8]), 1 to 10 nM; at GIP receptor [4] (setting [10]), < 1000 nM. Moreover, the maximal response (Emax) amounted to 95% on GLP-1 receptor [1] (setting [6]) and 106% at GIP receptor [3] (setting [9]).

As for `CC[C@H](C)[C@H](NC(=O)[C@H](CC(C)C)NC(=O)[C@H](Cc1c[nH]c2ccccc12)NC(=O)[C@H](CCC(N)=O)NC(=O)[C@@H](NC(=O)[C@H](Cc1ccccc1)NC(=O)[C@H](C)NC(=O)[C@H](CCCCNC(=O)COCCOCCNC(=O)COCCOCCNC(=O)CC[C@H](NC(=O)CCCCCCCCCCCCCCCCCCC(=O)O)C(=O)O)NC(=O)[C@H](CCC(N)=O)NC(=O)[C@H](C)NC(=O)[C@@H](NC(=O)[C@H](CCCCN)NC(=O)[C@H](CC(=O)O)NC(=O)[C@H](CC(C)C)NC(=O)C(C)(C)NC(=O)[C@@H](NC(=O)[C@H](CO)NC(=O)[C@H](Cc1ccc(O)cc1)NC(=O)[C@H](CC(=O)O)NC(=O)[C@H](CO)NC(=O)[C@@H](NC(=O)[C@H](Cc1ccccc1)NC(=O)[C@@H](NC(=O)CNC(=O)[C@H](CCC(=O)O)NC(=O)CCCNC(=O)CNC(=O)Cc1cccc(Cl)c1)[C@@H](C)O)[C@@H](C)O)[C@@H](C)CC)[C@@H](C)CC)C(C)C)C(=O)N[C@@H](C)C(=O)NCC(=O)NCC(=O)N1CCC[C@H]1C(=O)N[C@@H](CO)C(=O)N[C@@H](CO)C(=O)NCC(=O)N[C@@H](C)C(=O)N1CCC[C@H]1C(=O)N1CCC[C@H]1C(=O)N1CCC[C@H]1C(=O)N[C@@H](CO)C(N)=O` [Compound 221] ({Phenylacetyl(3-Cl)}-G[GABA]EGTFTSDYSI[Aib]LDKIAQK([AEEA-AEEA-γGlu-C20 diacid])AFVQWLIAGGPSSGAPPPS-NH2), the EC50 was 10 to 100 nM at GLP-1 receptor [1], > 1000 nM at GLP-1 receptor [2], 10 to 100 nM at GIP receptor [3] and > 1000 nM on GIP receptor [4]. For the same compound, the Emax on GLP-1 receptor [1] (CHO) and at GIP receptor [3] (CHO) was 95% in each case.

In the case of `CC[C@H](C)[C@H](NC(=O)[C@H](CO)NC(=O)[C@H](Cc1ccc(O)cc1)NC(=O)[C@H](CC(=O)O)NC(=O)[C@H](CO)NC(=O)[C@@H](NC(=O)[C@](C)(Cc1ccccc1F)NC(=O)[C@@H](NC(=O)CNC(=O)[C@H](CCC(=O)O)NC(=O)CCNC(=O)C1(c2ccccc2)CNC(=O)C1)[C@@H](C)O)[C@@H](C)O)C(=O)N[C@@H](Cc1ccc(O)cc1)C(=O)N[C@@H](CC(C)C)C(=O)N[C@@H](CC(=O)O)C(=O)N[C@@H](CCCCN)C(=O)N[C@@H](CCC(N)=O)C(=O)N[C@@H](C)C(=O)N[C@@H](C)C(=O)NC(C)(C)C(=O)N[C@@H](CCC(=O)O)C(=O)N[C@@H](Cc1ccccc1)C(=O)N[C@H](C(=O)N[C@@H](CC(N)=O)C(=O)N[C@@H](Cc1c[nH]c2ccccc12)C(=O)N[C@@H](CC(C)C)C(=O)N[C@@H](CC(C)C)C(=O)N[C@@H](C)C(=O)NCC(=O)NCC(=O)N1CCC[C@H]1C(=O)N[C@@H](CO)C(=O)N[C@@H](CO)C(=O)NCC(=O)N[C@@H](C)C(=O)N1CCC[C@H]1C(=O)N1CCC[C@H]1C(=O)N1CCC[C@H]1C(=O)N[C@@H](CO)C(=O)N[C@@H](CCCCNC(=O)COCCOCCNC(=O)COCCOCCNC(=O)CC[C@H](NC(=O)CCCCCCCCCCCCCCCCCCC(=O)O)C(=O)O)C(N)=O)C(C)C` (stereo partly drawn) [Compound 142], the concentration for a half-maximal effect (EC50) on GLP-1 receptor [1] (setting [5]) was 0.1 to 1 nM; on GLP-1 receptor [2] (setting [7]), < 1000 nM; at GIP receptor [3] (setting [8]), < 0.1 nM; at GIP receptor [4] (setting [10]), < 1000 nM. For the same compound, the Emax at GLP-1 receptor [1] (setting [6]) and on GIP receptor [3] (setting [9]) was 99% throughout.
